Data taken from patent US7632952B2, “Benzothiazoles and the use thereof as medicaments” (Aventis Pharma S.A., priority 2004, dated 2009).
Where a name gives a salt, the structure may show the parent alone.

Legend:
CDK4/cyclin D1 = CDK4/cyclin D1 (Homo sapiens, UniProt P11802); test: CDK4/cyclin D1 Flashplate test in 96-well format; format: biochemical
Description: 2. CDK4/cyclin D1 Protocol:
Purification of the CDK4-HA/cyclin D1-(His)6 Complex by IMAC (Immobilized Metal Affinity Chromatography):
Two recombinant baculoviruses bearing the human sequences coding, respectively, for CDK4-HA (C-terminal fusion with the hemaglutinin tag) and for cyclin D1-(His)6 are used to coinfect insect Sf9 cells. Sixty hours after the start of the coinfection, the cells are harvested by centrifugation and then frozen at −20° C. until the time of use.
CDK4/cyclin D1 Flashplate Test in 96-Well Format
A test in 96-well “Flashplate” plates coated with streptavidin is used to evaluate the inhibition of the CDK4/cyclin D1 kinase complex by the products of the invention. To perform this test, the biotinylated peptide substrate, a fragment of the pRb protein (biotinyl-[…]-amide) is dissolved at a concentration of 2 mM in kinase buffer (HEPES/NaOH 50 mM, NaCl 1 mM, MgCl2 5 mM, pH 7.5) in order to constitute a stock solution stored at −20° C. in the form of 110 μl aliquots. On the day of the experiment, an aliquot of this solution is thawed and diluted in kinase buffer containing 1 mM of dithiothreitol, and added to the buffer extemporaneously, in order to obtain a final peptide concentration of 2.571 μM. 70 μl of this solution are added to each well of the Flashplate in order to obtain a final substrate concentration of 1.8 μM during the enzymatic reaction, performed in a final volume of the reaction medium of 100 μl (cf. below). Intermediate dilutions of inhibitors (products of the invention) at various concentrations are prepared in DMSO from stock solutions at 10 mM in separate tubes. 1000 μM, 333.3 μM, 111.1 μM, 37.03 μM, 12.35 μM, 4.11 μM and 1.37 μM dilutions are thus prepared. 1 μl of each of these solutions (or 1 μl of DMSO for the controls) is then transferred into the wells of the test plate. Into each well are then added 19 μl of a solution of a mixture of adenosine triphosphate (ATP) and of ATPy^33P in the kinase buffer at a concentration of 5.26 μM of ATP total and 78.9 μCi/ml of ^33P. The enzymatic reaction is triggered by addition of 10 μl per well of a solution of CDK4/cyclin D1 at 250 nM in the kinase buffer containing 1 mM of dithiothreitol (or 10 μl of kinase buffer containing 1 mM of dithiothreitol for the reaction blanks).
(§1) After addition of all the reagents, the test plate is incubated at 30° C. with orbital stirring at 650 rpm. After the incubation, the plate is washed three times with 300 μl per well of PBS (phosphate-buffered saline, pH=7.4, without calcium or magnesium, reference 10010-015, Gibco BRL). The incorporation of ^33P into the substrate peptide is quantified by scintillation counting using a Packard Topcount.NXT machine. The inhibitory activity of the products of the invention is evaluated by measuring the inhibitory concentration that allows a 50% reduction in the enzymatic activity (IC50).

CDK2/cyclin E = CDK2/cyclin E (Homo sapiens, UniProt P24941); test: CDK2/cyclin E Flashplate test in 96-well format; format: biochemical; conditions: read-out: CDK2 IC50
Description: 1. Protocol CDK2/cyclin E:
Purification of the CDK2/cyclin E-(His)6 Complex by IMAC (Immobilized Metal Affinity Chromatography):
Two recombinant baculoviruses bearing the human sequences coding, respectively, for CDK2 and cyclin E (the latter comprising a C-terminal hexahistidine tag) are used to coinfect insect Sf21 cells. Two to three days after the start of coinfection, the cells are harvested by centrifugation and then stored at −40° C. until the time of use. After thawing and mechanical lysis of the cells, the complex present in the lysis supernatant is purified by affinity chromatography on nickel (IMAC), and stored at −80° C.
CDK2/cyclin E Flashplate Test in 96-Well Format
A format in 96-well plates coated with streptavidin is used to test the activity of the compounds on the kinase activity of CDK2/cyclin E.
To perform this test, the biotinylated peptide substrate, a fragment of the pRb protein (biotinyl-[…]-OH) is dissolved at a concentration of 1 mM in kinase buffer (HEPES/NaOH 50 mM, NaCl 1 mM, MgCl2 5 mM, pH 7.5) in order to constitute a stock solution stored at −20° C. in the form of 110 μl aliquots. On the day of the experiment, an aliquot of this solution is thawed and diluted in kinase buffer containing 1 mM of dithiothreitol, and added to the buffer extemporaneously, in order to obtain a concentration of 14.3 μM. 70 μl of this solution are added to each well of the Flashplate in order to obtain a final substrate concentration of 10 μM during the enzymatic reaction, performed in a final volume of the reaction medium of 100 μl (cf. below).
Intermediate dilutions of inhibitors (products of the invention) at various concentrations are prepared in DMSO from stock solutions at 10 mM in separate tubes. 1000 μM, 333.3 μM, 111.1 μM, 37.03 μM, 12.35 μM, 4.11 μM and 1.37 μM dilutions are thus prepared. 1 μl of each of these solutions (or 1 μl of DMSO for the controls) is transferred into the wells of the test plate.
Into each well are then added 19 μl of a solution of a mixture of adenosine triphosphate (ATP) and of ATPy^33P in the kinase buffer at a concentration of 5.26 μM of ATP total and 52.6 μCi/ml of ^33P. The enzymatic reaction is triggered by addition of 10 μl per well of a solution of CDK2/cyclin E at 200 nM in the kinase buffer containing 1 mM of dithiothreitol (or 10 μl of kinase buffer containing 1 mM of dithiothreitol for the reaction blanks).
After addition of all the reagents, the plate is incubated at 30° C. with orbital stirring at 650 rpm.
as §1, with “When” for “After addition of all”, “incubation” for “reagents, the test plate”, “complete,” for “incubated at 30° C. with orbital stirring at 650 rpm. After the incubation,”, “the” for “the substrate”

Aurora 2 = target: T1, Aurora 2 (Homo sapiens, UniProt O14965); test: Aurora 2 kinase radioactivity scintillation test; format: biochemical
T1 construct: A complete recombinant Aurora 2 enzyme, the N-terminal end of which was labeled with histidine; His tag (N); made in house; host or cells: E. coli
T1 sequence (O14965 1-403): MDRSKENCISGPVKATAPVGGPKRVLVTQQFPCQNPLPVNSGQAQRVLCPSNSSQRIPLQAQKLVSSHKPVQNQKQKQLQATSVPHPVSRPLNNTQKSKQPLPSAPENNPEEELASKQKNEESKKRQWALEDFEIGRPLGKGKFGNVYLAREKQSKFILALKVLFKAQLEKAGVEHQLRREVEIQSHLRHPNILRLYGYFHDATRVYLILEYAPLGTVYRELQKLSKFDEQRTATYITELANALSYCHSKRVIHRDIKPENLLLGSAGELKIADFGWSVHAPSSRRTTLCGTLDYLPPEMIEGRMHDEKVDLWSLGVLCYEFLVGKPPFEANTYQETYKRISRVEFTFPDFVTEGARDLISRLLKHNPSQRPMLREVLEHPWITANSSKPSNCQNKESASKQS
Description: The inhibitory effect of the compounds toward the kinase Aurora 2 is determined via a radioactivity scintillation test.
A complete recombinant Aurora 2 enzyme, the N-terminal end of which was labeled with histidine, was expressed in E. coli and purified to a quality close to homogeneity.
The C-terminal fragment (Q1687-H2101) of an NuMA (nuclear protein which is associated with the Mitotic Apparatus) expressed in E. coli, and the N-terminal end of which was labeled with histidine, was purified by chromatography with nickel chelate and used as substrate in the Aurora 2 kinase test.
The kinase activity of Aurora 2 is measured by scintillation on a microplate saturated with nickel chelate (New England Nuclear, SMP107 model). Each well contains 100 μl of the following solution: 0.02 μM of Aurora 2; 0.5 μM of NuMA substrate; 1 μM of ATP supplemented with 0.5 μCi of ATP-[^33P]. The solutions are incubated for 45 minutes at 37° C. The test buffer is then removed and the wells are rinsed twice with 300 μl of kinase buffer. The radioactivity is measured in each well using a Packard Model Top Count NXT machine.
The background noise is measured in duplicate in wells containing the radioactive ATP alone containing buffered kinase treated in the same manner as for the other samples.
The activity of the control is determined by measuring in duplicate the radioactivity in the complete test mixture (ATP, Aurora 2 and NuMA substrate), in the absence of test compound.
The inhibition of the activity of Aurora 2 with a compound of the invention is expressed as a percentage of inhibition of the control activity in the absence of test compound. Staurosporin is added to each plate as inhibition control.

HeLa = HeLa proliferation; format: cell-based; conditions: Homo sapiens, read-out: HeLa proliferation EC50 (nM) DG

Sequence of CDK4/cyclin D1 (P11802 whole entry): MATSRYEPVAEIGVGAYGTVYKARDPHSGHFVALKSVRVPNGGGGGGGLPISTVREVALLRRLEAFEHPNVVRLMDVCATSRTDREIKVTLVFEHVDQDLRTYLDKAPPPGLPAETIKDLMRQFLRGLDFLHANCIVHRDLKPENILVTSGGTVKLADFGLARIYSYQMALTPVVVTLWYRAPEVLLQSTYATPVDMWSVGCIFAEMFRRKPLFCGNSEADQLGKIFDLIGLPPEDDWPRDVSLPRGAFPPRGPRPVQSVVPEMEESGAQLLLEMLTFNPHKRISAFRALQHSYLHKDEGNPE
Sequence of CDK4/cyclin D1 (P24385 whole entry partner): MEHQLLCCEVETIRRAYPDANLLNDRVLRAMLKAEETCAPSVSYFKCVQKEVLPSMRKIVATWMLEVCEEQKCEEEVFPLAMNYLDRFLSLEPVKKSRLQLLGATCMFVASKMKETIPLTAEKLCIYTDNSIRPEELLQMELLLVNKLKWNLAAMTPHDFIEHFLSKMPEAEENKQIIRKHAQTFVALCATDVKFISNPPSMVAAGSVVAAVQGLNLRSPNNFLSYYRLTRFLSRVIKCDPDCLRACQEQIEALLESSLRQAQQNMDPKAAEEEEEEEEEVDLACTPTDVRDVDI

Row | IC50 (CDK4/cyclin D1) | IC50 (CDK2/cyclin E) | IC50 (Aurora 2) | EC50 (HeLa) | SMILES
1 | > 10 µM | 5 µM | 1.9 µM |  | CCN(CC)CCC(=O)Nc1nc2ccc(OS(=O)(=O)c3cccs3)cc2s1 [Example 33g, Thiophene-2-sulfonic acid 2-(3-diethyl-aminopropionylamino)benzothiazol-6-yl ester; compound with trifluoroacetic acid]
2 | 4.08 µM | 5.87 µM |  | 9960 nM | CCNCCNc1ccc(S(=O)(=O)Oc2ccc3nc(NC(=O)CCC4CCNCC4)sc3c2)cc1 [Example 25b, 4-(2-Ethylaminoethyl-amino)-benzenesulfonic acid 2-(3-piperid-4-yl-propionyl-amino)-benzo-thiazol-6-yl ester hydrochloride]
3 | > 10 µM | 3.24 µM | 0.436 µM |  | O=C(CCC1CCNCC1)Nc1nc2ccc(OS(=O)(=O)c3cccs3)cc2s1 [Example 33a, Thiophene-2-sulfonic acid 2-(3-piperid-4-ylpropionylamino)benzothiazol-6-yl ester; compound with trifluoroacetic acid]
4 | 1.22 µM | 0.294 µM |  | > 12500 nM | COCC(=O)Nc1nc2ccc(OS(=O)(=O)c3ccc(NCCNC(C)C)cc3)cc2s1 [Example 67, 4-(2-isopropylaminoethylamino)benzenesulfonic acid 2-(2-methoxyacetylamino)benzothiazol-6-yl ester]
5 | 0.708 µM | 0.069 µM |  | 5360 nM | CC(C)(O)CNc1ccc(S(=O)(=O)Oc2ccc3nc(NC(=O)CCCCCCCN)sc3c2)cc1 [Example 22d, 4-(2-Hydroxy-2-methyl-propylamino)benzene-sulfonic acid 2-(8-amino-octanoylamino)benzo-thiazol-6-yl ester hydro-chloride]
6 | 0.674 µM | 0.057 µM |  | 408 nM | CCCC(=O)Nc1nc2ccc(OS(=O)(=O)c3ccc(NCC(C)(C)O)cc3)cc2s1 [Example 80, 4-(2-hydroxy-2-methylpropylamino)benzene-sulfonic acid 2-butyrylaminobenzothiazol-6-yl ester hydrochloride]
7 | 1.7 µM | 0.365 µM |  | > 12500 nM | O=C(CCC1CCNCC1)Nc1nc2ccc(OS(=O)(=O)c3ccc(NCCCn4ccnc4)cc3)cc2s1 [Example 25a, 4-(3-Imidazol-1-ylpropyl-amino)benzenesulfonic acid 2-(3-piperid-4-ylpropionyl-amino)benzothiazol-6-yl ester hydrochloride]
